Here are results for three compounds from PMC6906261 (The journal of pain : official journal of the American Pain …, 2019).

The structures appear in SMILES notation. Structures can show the parent of a compound that is named as a salt.

In data set [1] the test system is CD-1 mice. The following applies: mouse, in vivo.
Data set [2] deals with CD-1 mice. The settings on record: general literature value; cited from earlier work.
The test system of data set [3] is CD-1 mice. The settings on record: mouse, in vivo. The source holds these as a separate data set.
Data set [4] relates to CD-1 mice. The settings on record: mouse, in vivo. The source holds these as a separate data set.
The subject of data set [5] is CD-1 mice. The settings on record: mouse, in vivo. This is another data set of the same source.
For data set [6], the system named is TNFα mRNA. The settings on record: mouse, in vivo.
For data set [7], the system named is CD-1 mice. The following applies: mouse, in vivo. The source holds these as a separate data set.

Regarding `CN1CC[C@]23c4c5ccc(O)c4O[C@H]2[C@@H](O)C=C[C@H]3[C@H]1C5` [Morphine, Morphine sulfate pentahydrate], the “Tolerance – Days to Zero Efficacy, CIPN, 10 mg/kg” value in data set [1] is 2.2 (1.9-3.3) days. Besides, in data set [2], the “Tail flick A50 from the literature” value is “around 3.2 mg/kg”. In data set [3], the “Withdrawal GI output, CIPN mice” value is “robust jumping and GI output response”; the “Withdrawal GI output, pain-naïve mice” value was “robust jumping and GI output behavior”; the “Withdrawal jumping behavior, CIPN mice” value was “robust jumping and GI output response”; the “Withdrawal jumping behavior, pain-naïve mice” value is “robust jumping and GI output behavior”. For the same compound, in data set [4], the “Rotarod motor impairment (latency to fall)” value is “no impairment”. In addition, in data set [5], the “Anti-nociceptive efficacy on day 3, HIV Neuropathy” value was “zero efficacy” and the “Tolerance – Days to Zero Efficacy, HIV Neuropathy, 10 mg/kg” value is on record as 3.0 (2.7-3.6) days. Besides, the “TNFα mRNA level in spinal cord in CIPN” value in data set [6] was “did not alter”.

`C=CCN1CC[C@]23c4c5ccc(O)c4O[C@H]2C(=O)CC[C@@]3(O)[C@H]1C5` [Naloxone]: in data set [7], the “Decrease of tail flick AUC vs vehicle group, naloxone it” value amounted to 4.6%; the “Effect of antagonist on SRI-22141 tail flick anti-nociception, naloxone icv” value was “strongly reduced”; the “Effect of antagonist on SRI-22141 tail flick anti-nociception, naloxone ip” value is listed as “completely prevented”.

For `Oc1ccc2c3c1O[C@H]1c4[nH]c5ccccc5c4C[C@@]4(O)[C@@H](C2)N(CC2CC2)CC[C@]314` [Naltrindole], the “Effect of antagonist on SRI-22141 anti-nociception in CIPN” value in data set [1] is “strongly reduced”. Besides, the “Effect of antagonist on SRI-22141 tail flick anti-nociception, naltrindole ip” value in data set [7] is on record as “no impact”. In data set [6], the “Effect of antagonist on TNFα mRNA decrease caused by SRI-22141” value was “reversed the decrease in TNFα caused by SRI-22141 back to baseline”.
